In ChEMBL document CHEMBL4428049, “Design and synthesis of aminothiazole modulators of the gamma-secretase enzyme” (Bioorg Med Chem Lett, 2016):
pIC50: −log10 of the molar value. In brackets after ≈: the same amount, converted by molar mass.

Columns and labels:
[1] = Modulation of gamma-secretase in CHO cells expressing human APP695 assessed as inhibition of Abeta42 level after 20 hrs by FRET HTS assay; format: cell-based; settings: Cricetulus griseus
[2] = molecular target: Gamma-secretase; experiment: Modulation of gamma-secretase in human SH-SY5Y cells overexpressing wild-type human APP751 assessed as inhibition of Abeta42 level after 24 hrs by ELISA; format: cell-based
[3] = Kinetic solubility in PBS buffer at pH 7.4 by UV/vis absorbance analysis; format: physicochemical; settings: read-out: Kinetic_solubility
[4] = molecular target: Cytochrome P450 3A4 (Homo sapiens, UniProt P08684); experiment: Inhibition of recombinant CYP3A4 (unknown origin) by fluorescence-based assay; format: ADME
Cytochrome P450 3A4, sequence (P08684 whole entry): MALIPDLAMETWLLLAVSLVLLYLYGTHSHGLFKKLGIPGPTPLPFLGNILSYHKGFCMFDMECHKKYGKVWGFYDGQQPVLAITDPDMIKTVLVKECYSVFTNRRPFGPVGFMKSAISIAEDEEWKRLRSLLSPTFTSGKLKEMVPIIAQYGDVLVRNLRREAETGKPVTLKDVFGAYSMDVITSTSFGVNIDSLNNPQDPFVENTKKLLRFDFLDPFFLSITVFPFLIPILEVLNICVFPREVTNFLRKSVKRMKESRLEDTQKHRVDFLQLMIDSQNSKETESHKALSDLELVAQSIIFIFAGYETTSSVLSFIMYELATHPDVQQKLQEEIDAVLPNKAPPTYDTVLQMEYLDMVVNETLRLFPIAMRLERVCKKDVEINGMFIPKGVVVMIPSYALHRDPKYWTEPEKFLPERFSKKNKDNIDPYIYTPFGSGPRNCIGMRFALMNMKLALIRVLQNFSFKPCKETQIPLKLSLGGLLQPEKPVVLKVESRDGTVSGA

[5] = molecular target: T1, Cytochrome P450 1A2 (Homo sapiens, UniProt P05177); experiment: Inhibition of recombinant CYP1A2 (unknown origin) by fluorescence-based assay; format: ADME
T1 sequence (P05177 whole entry): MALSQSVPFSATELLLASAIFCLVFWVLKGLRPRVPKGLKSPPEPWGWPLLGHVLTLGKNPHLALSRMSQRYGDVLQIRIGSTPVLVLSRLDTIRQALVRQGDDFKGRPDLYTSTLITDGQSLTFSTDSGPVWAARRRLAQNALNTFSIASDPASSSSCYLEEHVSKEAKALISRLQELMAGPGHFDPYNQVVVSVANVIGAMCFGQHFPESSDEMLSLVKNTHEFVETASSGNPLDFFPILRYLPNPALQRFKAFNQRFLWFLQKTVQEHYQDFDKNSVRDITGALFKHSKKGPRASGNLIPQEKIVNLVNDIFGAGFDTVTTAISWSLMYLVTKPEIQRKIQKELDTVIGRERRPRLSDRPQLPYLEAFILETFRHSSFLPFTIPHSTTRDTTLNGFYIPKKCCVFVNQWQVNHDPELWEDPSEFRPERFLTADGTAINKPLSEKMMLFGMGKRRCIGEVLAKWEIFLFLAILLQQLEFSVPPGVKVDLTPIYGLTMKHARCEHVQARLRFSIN

[6] = Cmax in CD1 mouse at 1 mg/kg, iv administered as single dose by HPLC/MS/MS analysis; format: ADME, organism-based; parameters: dose 1 mg/kg, route intravenous; settings: in vivo
[7] = Protein binding in plasma (unknown origin); format: ADME, cell-free; settings: read-out: PPB (converted)
[8] = Volume of distribution at steady state in CD1 mouse at 1 mg/kg, iv administered as single dose by HPLC/MS/MS analysis; format: ADME, organism-based; settings: in vivo, read-out: Vdss
[9] = Tmax in CD1 mouse at 5 mg/kg administered via oral gavage by HPLC/MS/MS analysis; format: ADME, organism-based; settings: in vivo
[10] = Apparent permeability in MDCK cells expressing MDR1; format: ADME, cell-based, Canis lupus familiaris; settings: dog
[11] = Stability in rat liver microsomes assessed as compound remaining at 1 uM incubated for 30 mins; format: ADME, Microsome; settings: read-out: Stability
[12] = AUC (infinity) in CD1 mouse at 5 mg/kg administered via oral gavage by HPLC/MS/MS analysis; format: ADME, organism-based; parameters: dose 5 mg/kg, time infinity, route oral; settings: in vivo
[13] = AUC (infinity) in CD1 mouse at 1 mg/kg, iv administered as single dose by HPLC/MS/MS analysis; format: ADME, organism-based; parameters: dose 1 mg/kg, route intravenous, time infinity; settings: in vivo
[14] = Clearance in CD1 mouse at 1 mg/kg, iv administered as single dose by HPLC/MS/MS analysis; format: ADME, organism-based; settings: in vivo
[15] = Efflux ratio of permeability from basolateral to apical over apical to basolateral side of MDCK cells expressing MDR1; format: ADME, cell-based, Canis lupus familiaris; settings: dog
[16] = Ratio of drug level in brain to plasma in CD1 mouse at 1 mg/kg, iv administered as single dose measured after 1 hr by HPLC/MS/MS analysis; format: ADME, organism-based; settings: read-out: BPR
[17] = molecular target: Cytochrome P450 2C9 (Homo sapiens, UniProt P11712); experiment: Inhibition of recombinant CYP2C9 (unknown origin) by fluorescence-based assay; format: ADME
Cytochrome P450 2C9, sequence (P11712 whole entry): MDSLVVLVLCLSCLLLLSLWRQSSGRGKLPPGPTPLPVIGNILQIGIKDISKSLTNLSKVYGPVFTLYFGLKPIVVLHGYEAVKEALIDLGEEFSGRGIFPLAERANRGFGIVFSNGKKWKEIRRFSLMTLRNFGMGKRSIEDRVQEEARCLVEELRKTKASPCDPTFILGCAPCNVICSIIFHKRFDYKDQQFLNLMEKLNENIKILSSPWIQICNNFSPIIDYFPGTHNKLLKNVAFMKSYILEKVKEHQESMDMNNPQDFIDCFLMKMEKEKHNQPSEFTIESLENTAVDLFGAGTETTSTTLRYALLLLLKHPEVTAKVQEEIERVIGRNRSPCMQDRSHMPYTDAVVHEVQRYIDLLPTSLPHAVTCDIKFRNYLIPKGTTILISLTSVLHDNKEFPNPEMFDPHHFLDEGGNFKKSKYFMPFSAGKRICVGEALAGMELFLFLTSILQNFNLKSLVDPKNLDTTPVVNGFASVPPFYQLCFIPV

[18] = Ratio of drug level in brain to plasma in CD1 mouse at 5 mg/kg administered via oral gavage by HPLC/MS/MS analysis; format: ADME, organism-based; settings: read-out: BPR
[19] = AUC (last) in CD1 mouse at 1 mg/kg, iv administered as single dose by HPLC/MS/MS analysis; format: ADME, organism-based; parameters: dose 1 mg/kg, time 0 - last, route intravenous; settings: in vivo
[20] = Tmax in CD1 mouse at 1 mg/kg, iv administered as single dose by HPLC/MS/MS analysis; format: ADME, organism-based; settings: in vivo
[21] = Ratio of drug level in brain to plasma in CD1 mouse at 5 mg/kg administered via oral gavage measured after 4 hrs by HPLC/MS/MS analysis; format: ADME, organism-based; settings: read-out: BPR
[22] = Stability in mouse liver microsomes assessed as compound remaining at 1 uM incubated for 30 mins; format: ADME, Microsome; settings: read-out: Stability
[23] = molecular target: Voltage-gated inwardly rectifying potassium channel KCNH2 (Homo sapiens, UniProt Q12809); experiment: Inhibition of human ERG channel expressed in HEK293 cells by patch-clamp assay; format: cell-based
Voltage-gated inwardly rectifying potassium channel KCNH2, sequence (Q12809 whole entry): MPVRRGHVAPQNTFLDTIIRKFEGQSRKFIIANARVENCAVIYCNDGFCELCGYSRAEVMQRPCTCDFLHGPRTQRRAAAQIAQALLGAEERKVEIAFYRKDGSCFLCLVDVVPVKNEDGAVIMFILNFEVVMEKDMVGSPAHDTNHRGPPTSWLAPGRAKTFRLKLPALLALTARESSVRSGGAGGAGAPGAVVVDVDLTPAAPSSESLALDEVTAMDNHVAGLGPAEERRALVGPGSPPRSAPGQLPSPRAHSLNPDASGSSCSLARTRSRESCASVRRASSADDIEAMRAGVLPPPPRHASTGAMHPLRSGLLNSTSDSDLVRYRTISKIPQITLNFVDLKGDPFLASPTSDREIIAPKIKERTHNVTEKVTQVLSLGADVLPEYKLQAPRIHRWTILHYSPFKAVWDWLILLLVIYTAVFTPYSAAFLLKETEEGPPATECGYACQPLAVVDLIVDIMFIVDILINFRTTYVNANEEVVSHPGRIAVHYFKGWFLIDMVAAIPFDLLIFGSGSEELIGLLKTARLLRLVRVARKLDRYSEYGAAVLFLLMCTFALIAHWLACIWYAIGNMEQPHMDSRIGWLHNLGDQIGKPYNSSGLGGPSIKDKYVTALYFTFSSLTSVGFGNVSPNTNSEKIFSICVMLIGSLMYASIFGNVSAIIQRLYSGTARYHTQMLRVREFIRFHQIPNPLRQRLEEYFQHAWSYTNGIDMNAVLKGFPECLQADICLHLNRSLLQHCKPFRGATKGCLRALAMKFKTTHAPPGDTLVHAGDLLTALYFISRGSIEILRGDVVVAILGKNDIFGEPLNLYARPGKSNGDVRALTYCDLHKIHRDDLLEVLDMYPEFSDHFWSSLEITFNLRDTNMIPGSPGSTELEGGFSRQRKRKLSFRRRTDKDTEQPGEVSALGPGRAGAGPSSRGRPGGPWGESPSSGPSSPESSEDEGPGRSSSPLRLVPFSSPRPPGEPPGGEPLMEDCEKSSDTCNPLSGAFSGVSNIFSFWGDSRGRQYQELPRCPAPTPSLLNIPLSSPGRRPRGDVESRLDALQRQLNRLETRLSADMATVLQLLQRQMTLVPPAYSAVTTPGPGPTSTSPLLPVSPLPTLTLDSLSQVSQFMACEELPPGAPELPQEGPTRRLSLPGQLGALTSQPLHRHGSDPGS

[24] = Clearance in CD1 mouse at 1 mg/kg administered intravenously by HPLC/MS/MS analysis relative to hepatic blood flow; settings: in vivo, iv
[25] = Ratio of drug level in brain to plasma in CD1 mouse at 5 mg/kg administered via oral gavage measured after 8 hrs by HPLC/MS/MS analysis; format: ADME, organism-based; settings: read-out: BPR
[26] = AUC (last) in CD1 mouse at 5 mg/kg administered via oral gavage by HPLC/MS/MS analysis; format: ADME, organism-based; parameters: dose 5 mg/kg, time 0 - last, route oral; settings: in vivo
[27] = molecular target: Cytochrome P450 2D6 (Homo sapiens, UniProt P10635); experiment: Inhibition of recombinant CYP2D6 (unknown origin) by fluorescence-based assay; format: ADME
Cytochrome P450 2D6, sequence (P10635 whole entry): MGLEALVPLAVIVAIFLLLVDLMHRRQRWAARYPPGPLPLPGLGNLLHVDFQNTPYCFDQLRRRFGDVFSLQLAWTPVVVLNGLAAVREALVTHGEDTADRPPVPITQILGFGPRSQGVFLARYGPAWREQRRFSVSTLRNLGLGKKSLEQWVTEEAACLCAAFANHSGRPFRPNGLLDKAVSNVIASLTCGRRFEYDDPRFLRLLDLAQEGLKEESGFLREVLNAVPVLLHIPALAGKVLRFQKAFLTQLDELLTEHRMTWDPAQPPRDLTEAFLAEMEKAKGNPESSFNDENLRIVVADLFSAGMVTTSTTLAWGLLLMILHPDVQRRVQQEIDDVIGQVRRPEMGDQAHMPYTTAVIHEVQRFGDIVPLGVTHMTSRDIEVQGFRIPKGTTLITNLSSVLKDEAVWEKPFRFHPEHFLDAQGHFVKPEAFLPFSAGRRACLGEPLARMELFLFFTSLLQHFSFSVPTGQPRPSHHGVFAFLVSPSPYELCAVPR

[28] = Lipophilicity, log D of the compound; format: physicochemical; settings: octanol/water
[29] = Half life in CD1 mouse at 1 mg/kg, iv administered as single dose by HPLC/MS/MS analysis; format: ADME, organism-based; settings: in vivo
[30] = Cmax in CD1 mouse at 5 mg/kg administered via oral gavage by HPLC/MS/MS analysis; format: ADME, organism-based; parameters: dose 5 mg/kg, route oral; settings: in vivo
[31] = molecular target: Cytochrome P450 2C19 (Homo sapiens, UniProt P33261); experiment: Inhibition of recombinant CYP2C19 (unknown origin) by fluorescence-based assay; format: ADME
Cytochrome P450 2C19, sequence (P33261 whole entry): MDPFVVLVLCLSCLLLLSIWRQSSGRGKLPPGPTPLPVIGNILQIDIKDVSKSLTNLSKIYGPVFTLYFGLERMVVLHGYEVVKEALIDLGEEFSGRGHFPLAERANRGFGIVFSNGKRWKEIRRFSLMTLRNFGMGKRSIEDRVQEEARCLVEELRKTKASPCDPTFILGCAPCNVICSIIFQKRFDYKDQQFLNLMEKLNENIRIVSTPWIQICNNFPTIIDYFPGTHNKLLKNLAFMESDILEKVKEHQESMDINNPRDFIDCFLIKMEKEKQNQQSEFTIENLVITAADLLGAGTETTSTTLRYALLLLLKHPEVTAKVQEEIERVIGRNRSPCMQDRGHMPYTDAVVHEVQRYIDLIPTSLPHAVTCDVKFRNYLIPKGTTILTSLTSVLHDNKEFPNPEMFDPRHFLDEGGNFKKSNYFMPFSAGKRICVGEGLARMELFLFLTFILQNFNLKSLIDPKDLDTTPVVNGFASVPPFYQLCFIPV

[32] = Stability in human liver microsomes assessed as compound remaining at 1 uM incubated for 30 mins; format: ADME, Microsome; settings: read-out: Stability
[33] = Half life in CD1 mouse at 5 mg/kg administered via oral gavage by HPLC/MS/MS analysis; format: ADME, organism-based; settings: in vivo

CCc1cc(Nc2nc(-c3ccc(-n4cnc(C)c4)c(F)c3)cs2)c(C)cc1C
pIC50 [1]: 8.00

CCn1nc2c(c1Nc1nc(-c3ccc(-n4cnc(C)c4)c(F)c3)cs1)CCC2
pIC50 [2]: 7.39 | solubility kinetic [3]: < 1.6 µM

CCn1nc(C(C)(C)C)cc1Nc1nc(-c2ccc(-n3cnc(C)c3)c(F)c2)cs1
pIC50 [4]: 4.80 | pIC50 [5]: < 4.00 | Cmax [6]: 161 ng/mL | pIC50 [2]: 7.20 | fraction unbound [7]: 0.006 | Vd [8]: 7.15 L/kg | Tmax [9]: 1 h | Papp [10]: 0.97 ×10⁻⁶ cm/s | remaining at 0.5 h, 1 µM [11]: 64% | AUC(0-inf) [12]: 5720 ng·h/mL | AUC(0-inf) [13]: 498 ng·h/mL | clearance [14]: 33.5 mL/min/kg | efflux ratio [15]: 1.6 | Kp at 1 h [16]: 0.64 | pIC50 [17]: < 4.00 | Kp [18]: 0.5 | AUC(0-t) [19]: 335 ng·h/mL | Tmax [20]: 4.98 min | Kp at 4 h [21]: 0.53 | solubility kinetic [3]: 4.7 µM (≈ 2 µg/mL) | remaining at 0.5 h, 1 µM [22]: 95% | pIC50 [23]: < 4.52 | CL [24]: 40% | Kp at 8 h [25]: 0.59 | AUC(0-t) [26]: 5390 ng·h/mL | pIC50 [27]: < 4.00 | logD [28]: 3.64 | half-life [29]: 2.4 h | Cmax [30]: 1000 ng/mL | pIC50 [31]: 4.09 | remaining at 0.5 h, 1 µM [32]: 51% | half-life [33]: 6 h

Cc1cn(-c2ccc(-c3csc(Nc4c5c(nn4C(C)(C)C)CCC5)n3)cc2F)cn1
pIC50 [2]: 6.76

Cc1cn(-c2ccc(-c3csc(Nc4cc(C(C)(C)C)nn4C)n3)cc2F)cn1
pIC50 [2]: 6.53

CCn1nc2c(c1N(C)c1nc(-c3ccc(-n4cnc(C)c4)c(F)c3)cs1)CCCC2
pIC50 [2]: < 6.00

CCn1nc(C(F)(F)F)cc1Nc1nc(-c2ccc(-n3cnc(C)c3)c(F)c2)cs1
pIC50 [2]: 6.96 | solubility kinetic [3]: < 1.6 µM

Cc1cn(-c2ccc(-c3csc(Nc4c5c(nn4CCN4CCCCC4)CCCC5)n3)cc2F)cn1
pIC50 [2]: 6.32 | solubility kinetic [3]: 8.1 µM (≈ 4.1 µg/mL)

Cc1cn(-c2ccc(-c3csc(Nc4c5c(nn4CC(F)(F)F)CCCC5)n3)cc2F)cn1
pIC50 [2]: 6.75

Cc1cn(-c2ccc(-c3csc(Nc4c5c(nn4CCO)CCCC5)n3)cc2F)cn1
pIC50 [2]: 6.44 | solubility kinetic [3]: 15 µM (≈ 6.58 µg/mL)

CCn1nc2c(c1Nc1nc(-c3ccc(-n4cnc(C)c4)c(F)c3)cs1)CCCCC2
pIC50 [2]: 6.94

Cc1cn(-c2ccc(-c3csc(Nc4c5c(nn4C)CCC5)n3)cc2F)cn1
pIC50 [2]: < 6.00

Cc1cn(-c2ccc(-c3csc(Nc4c5c(nn4C(C)(C)C)CCCC5)n3)cc2F)cn1
pIC50 [2]: 6.67

CCn1nc2c(c1Nc1nc(-c3ccc(-n4cnc(C)c4)c(F)c3)cs1)C(C)CC2(C)C (stereo not given)
pIC50 [2]: 7.31 | solubility kinetic [3]: 2.6 µM (≈ 1.17 µg/mL)

CCn1nc(C(C)C)cc1Nc1nc(-c2ccc(-n3cnc(C)c3)c(F)c2)cs1
pIC50 [2]: 6.40

CCCn1nc2c(c1Nc1nc(-c3ccc(-n4cnc(C)c4)c(F)c3)cs1)CCCC2
pIC50 [2]: 6.83

Cc1cn(-c2ccc(-c3csc(Nc4c5c(nn4C4CCC4)CCCC5)n3)cc2F)cn1
pIC50 [2]: 6.95 | solubility kinetic [3]: < 1.6 µM

Cc1cn(-c2ccc(-c3csc(Nc4c5c(nn4C4CCCC4)CCCC5)n3)cc2F)cn1
pIC50 [2]: 6.65

Cc1cn(-c2ccc(-c3csc(Nc4c5c(nn4CC(C)(C)O)CCCC5)n3)cc2F)cn1
pIC50 [2]: 7.26 | solubility kinetic [3]: < 1.6 µM

CCn1nc2c(c1Nc1nc(-c3ccc(-n4cnc(C)c4)c(F)c3)cs1)CCCC2
pIC50 [2]: 6.79

Cc1cn(-c2ccc(-c3csc(Nc4cc(C(F)(F)F)nn4CC(F)(F)F)n3)cc2F)cn1
pIC50 [2]: 6.11

Cc1cn(-c2ccc(-c3csc(Nc4c5c(nn4C4CCCCC4)CCCC5)n3)cc2F)cn1
pIC50 [2]: 6.55
